Assays:
actin stress fibers = experiment: Actin stress fiber depolymerization in HUVEC during S. aureus infection; format: cell-based, human; settings: 18-20 h pretreatment, S. aureus 1 h
Procedure: FIG. 8A is an image depicting ML 141 limiting actin stress fiber depolymerization during infection. Human umbilical vein endothelial cells (HUVEC) were incubated with ML 141 or with the vehicle control polyethylene glycol (PEG) 18-20 h prior to infection with Staphylococcus aureus (1 h). Actin was detected using Alexa Fluor 488 phalloidin. Arrows indicate intact actin stress fibers. Arrowhead indicates cell lacking actin stress fibers. 100 cells/treatment were evaluated from randomly selected fields. Data are presented as the % of cells in which actin stress fibers were not detected. Scale bar is 50 μm.
FIG. 8B is an image depicting RSM 06 limiting actin stress fiber depolymerization during infection. Human umbilical vein endothelial cells (HUVEC) were incubated with RSM 06 or with the vehicle control polyethylene glycol (PEG) 18-20 h prior to infection with Staphylococcus aureus (1 h). Actin was detected using Alexa Fluor 488 phalloidin. 200 cells/treatment were evaluated from randomly selected fields. Data are presented as the % of cells in which actin stress fibers were not detected. Scale bar is 50 μm.
FIG. 8C is an image depicting RSM 16 limiting actin stress fiber depolymerization during infection. Human umbilical vein endothelial cells (HUVEC) were incubated with RSM 16 or with the vehicle control polyethylene glycol (PEG) 18-20 h prior to infection with Staphylococcus aureus (1 h). Actin was detected using Alexa Fluor 488 phalloidin. 200 cells/treatment were evaluated from randomly selected fields. Data are presented as the % of cells in which actin stress fibers were not detected. Scale bar is 50 μm.
HUVEC are plated at 1×10^5 cells/ml into 35 mm glass-bottom dishes (MatTek, Ashland, Mass.) are coated with Attachment Factor, are pretreated, and are infected (1.2×10^8 CFU) as described above. […] Alexa 488 is excited by the 488 nanommeter Ar laser line and is detected using a 505-530 nanometer bandpass filter. […] Maximum pixel projections from the Z-stacks are generated and are analyzed for actin morphology.

Staphylococcus aureus [1] = experiment: Staphylococcus aureus host cell invasion assay in HUVEC, flow cytometry; format: cell-based; settings: HUVEC; for inhibition of invasion compared with ML 141 (Table 1): 10 μM, flow cytometry; for activity at 10 µM: Staphylococcus aureus, 1 h, read-out: Internalized bacteria (% control ± SEM), Structural analog
Procedure: In one embodiment, human umbilical vein endothelial cells (HUVEC, Life Technologies) are cultured in M200 medium supplemented with LSGS. RAW 264.7 cells (American Type Culture Collection, ATCC, Manassas, Va.) are cultured in RPMI supplemented with 10% FBS and L-glutamine. All cell types are maintained at 5% CO2, 37° C., in 75 cm^2 vented cap flasks (Thermo-Fisher). For assays, cultured cells are plated at 1×10^5 cells/ml in 35 mm culture dishes coated with Attachment Factor. The next day, cells are pretreated in culture medium containing the vehicle control or ML 141. For compound delivery, ML 141 first is suspended into DMSO or into PEG at a concentration of 5 mM. The 5 mM solution is diluted to 1 mM in the solvent and then diluted to the final concentration for each experiment in either serum-containing or serum-free medium. For vehicle control treatment, the same volume of PEG or DMSO as that of ML 141 is added to medium. The following day, the invasion assay is performed. For the shorter duration experiments, compound is added on the same day as the invasion assay, 1 hour prior to bacteria.
In another embodiment, HUVEC (Millipore, Billerica, Mass.) are cultured in EndoGRO LS Complete Media (Millipore) and are maintained at 5% CO2, 37° C., in 75 cm^2 vented cap flasks (Thermo-Fisher). For the invasion assay, cultured cells are plated at 1×10^4 cells/ml in 96-well culture dishes coated with Attachment Factor. The next day, cells are pretreated in culture medium containing the vehicle control, ML 141, or ML 141 structural analog. For compound delivery, ML 141 and structural analogs first are suspended into PEG at a concentration of 5 mM. The 5 mM solution is diluted to 1 mM in the solvent and then is diluted to the final concentration for each experiment in serum containing medium. For vehicle control treatment, the same volume of PEG as that of ML 141 or of ML 141 structural analog is added to the medium. The following day, the invasion assay is performed. Bacteria are added directly to medium containing vehicle control, ML 141, or the ML 141 structural analog.
Two days prior to the assay, TSB is inoculated with S. aureus (American Type Culture Collection #29213) and incubated overnight (225 rpm, 37° C.). Bacteria are subcultured the next day into fresh TSB. On the day of the assay, bacteria are pelleted (10000×g, 37° C., 3 min), are washed in saline, are pelleted as above, are resuspended in saline, then fluorescently labeled by incubation with rabbit anti-mouse IgG Alexa Fluor 488 (final concentration 8 μg/ml, RT, 20 min). Protein A, a S. aureus cell surface protein, avidly binds IgG thereby labeling the bacteria. Labeled bacteria are washed twice as above and are resuspended to 3×10^8 CFU/ml in saline. Host cells are incubated with the bacteria for 1 hour (1.2×10^8 CFU/ml for same-day recovery, 5×10^6 for recovery after 48 hours, 1.4×10^7 CFU/ml; 5% CO2, 37° C.). Following infection, extracellular bacteria are removed by extensive washes with PBS and incubation of the host cells with antimicrobials that have limited mammalian membrane permeability (lysostaphin, 20 μg/ml and gentamicin, 50 μg/ml; 45 min for same-day recovery studies, 48 hours for 2-day recovery studies; 5% CO2, 37° C.). To detect the level of infection using flow cytometry, cells that have been infected with fluorescently-labeled bacteria are washed extensively with PBS, lifted from 96-well plate by incubation with trypsin, washed extensively in FACS buffer (2% BSA/0.1% sodium azide/PBS), fixed (FACS buffer containing 0.74% formaldehyde), and are counted using an Accuri flow cytometer (BD, Franklin Lakes, N.J.). They are also lifted from culture dishes using cell scrapers, pelleted, fixed (1% BSA/0.74% formaldehyde/PBS), and are counted using an Accuri flow cytometer. For enumeration of the infecting bacteria, intracellular bacteria are released from host cells using 1% saponin/PBS (20 min, 5% CO2, 37° C.) and serial dilutions are plated on TSA (16 hours, 37° C.). […]

[2] = test system: Human umbilical vein endothelial cells; experiment: Cytotoxicity by propidium iodide exclusion, HUVEC; format: cell-based; settings: HUVEC pretreated 18-20 h
CDC42 = CDC42 (Homo sapiens, UniProt P60953); experiment: BODIPY-FL-GTP binding to CDC42
Chain of CDC42 (P60953 whole entry): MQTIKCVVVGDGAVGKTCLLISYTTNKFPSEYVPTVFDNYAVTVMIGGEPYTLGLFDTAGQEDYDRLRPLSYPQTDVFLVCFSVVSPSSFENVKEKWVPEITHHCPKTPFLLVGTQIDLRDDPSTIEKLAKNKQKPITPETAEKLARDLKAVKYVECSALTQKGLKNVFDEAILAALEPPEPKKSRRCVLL

Staphylococcus aureus [3] = experiment: Assessment of bactericidal activity (HUVEC media); format: cell-based; settings: 1.2 × 10^8 CFU S. aureus, 1 h in HUVEC media; 10 μM
Procedure: FIG. 6B illustrates that neither cytotoxicity nor bactericidal activity is detected. Cultures of Staphylococcus aureus that had been incubated with the vehicle control DMSO or with ML 141 (1 hour, 37° C., 225 rpm) were serially diluted, plated onto blood agar, and incubated (18 hours, 37° C.). Colonies were enumerated and colony forming units (CFU)/ml determined. CFU/ml were not different amongst the groups (p>0.05 by t-test; n=2/treatment). […]

Row | SMILES | depolymerization of actin stress fibers during infection (actin stress fibers) | inhibition of invasion compared with ML 141 (Table 1) (Staphylococcus aureus [1]) | activity at 10 µM (Staphylococcus aureus [1]) | Mean fluorescence intensity (×10^4 ± SEM), Compound (10 μM) [2] | IC50 (CDC42) | CFU (×10^8 ± SEM), Compound (10 μM) (Staphylococcus aureus [3])
1 | COc1ccc(C2=NN(c3ccc(S(N)(=O)=O)cc3)C(c3ccc(OC)c(OC)c3)C2)cc1 (stereo not drawn) [RSM 16] | limited actin depolymerization | inhibited invasion more than ML 141 | 63 ± 4% | 1.4 ± 0.2 ×10^4 | 3.7 µM | 8.9 ± 1.9 ×10^8 CFU
2 | COc1ccc(C2=NN(c3ccc(S(N)(=O)=O)cc3)C(c3ccc4c(c3)OCO4)C2)cc1 (stereo not drawn) [RSM 06] | limited actin depolymerization | inhibited invasion more than ML 141 | 23 ± 1% | 2.8 ± 0.1 ×10^4 | 10.1 µM | 4.9 ± 1.6 ×10^8 CFU

From patent US10183032B2, “Methods for treating bacterial infection” (Ball State Innovation Corporation, priority 2012, dated 2019)
